Test results: US20210315837A1, “CANNABINOIDS FOR THE TREATMENT OF GRAM-POSITIVE INFECTIONS INCLUDING ANTIBIOTIC-RESISTANT BACTERIAL STRAINS” (priority 2018, published 2021)
≈ marks a conversion by molar mass, not a printed value.

The molecules below were run on MRS USA 300 (assay: IC50, MIC and MBC against MRS USA 300). Details: MRS USA 300.
Assay type: cell-based, Staphylococcus aureus
Protocol: (§1) As used herein, the term “minimum inhibitory concentration (MIC)” refers to the lowest concentration of an antimicrobial agent that will inhibit the visible growth of a microorganism after overnight incubation. MIC values against bacteria may be determined by standard methods. See also P. A. Wayne, Methods for Dilution Antimicrobial Tests for Bacteria that Grow Aerobically; Approved Standard, Ninth Edition, 2012, CLSI Document M07-A9, Vol. 32 No. 2, which is incorporated by reference herein in its entirety.
In the case of `CCCCCc1cc(O)c(CCC(C)CCCC(C)C)c(O)c1` (stereo not shown) [Tetrahydro CBG, Tetrahydrocannabigerol], the “MBC” value is reported as greater than 62 µM and the “MIC” value is reported as 6.49 ± 2.25 µM (≈ 2.08 µg/mL).

Same assay, conditions: MRS USA 300; read-out: IC50
For `CCCCCc1cc(O)c(CCC(C)CCCC(C)C)c(O)c1` (stereo not shown) [Tetrahydro CBG, Tetrahydrocannabigerol], the IC50 was 2560 ± 310 nM.

Same assay, conditions: MRS USA 300; tested Conc. in μg/mL
Work on `CCCCCc1cc(O)c(C/C=C(\C)CCC2OC2(C)C)c(O)c1` (stereo not shown) [6,7-Epoxycannabigerol] yielded an IC50 of 7.53 and an MIC of 20 ± 0. Work on `CCCCCc1cc(O)c2c(c1)OC(C)(C)c1cc(O)c(C)cc1-2` [8-Hydroxycannabinol] yielded an IC50 of 1.58 and an MIC of 5 ± 0. `CC(C)=CCC/C(C)=C\Cc1c(O)cc(C)cc1O` [(Z)-Cannabigerorcin] was tested, and the IC50 was 6.46 and the MIC was 16.67. For `CCCCCc1cc(O)c(CCC(C)CCCC(C)C)c(O)c1` (stereo not shown) [Tetrahydro CBG, Tetrahydrocannabigerol], the IC50 was 0.82 ± 0.1 and the MIC was 2.08.

The molecules below were run on MRS 1708 (Mupirocin-resistant) (assay: IC50, MIC and MBC against MRS 1708 (Mupirocin-resistant)). Details: MRS 1708 (Mupirocin-resistant).
Assay type: cell-based, Staphylococcus aureus
Parameters: AMC: unit not given here
Protocol: as §1
For `CCCCCc1cc(O)c(CCC(C)CCCC(C)C)c(O)c1` (stereo not shown) [Tetrahydro CBG, Tetrahydrocannabigerol], the “MBC” value was 10.39 ± 4.49 µM (≈ 3.33 µg/mL) and the “MIC” value was 5.21 ± 2.25 µM (≈ 1.67 µg/mL).

Same assay, conditions: MRS 1708 (Mupirocin-resistant); read-out: IC50
For `CCCCCc1cc(O)c(CCC(C)CCCC(C)C)c(O)c1` (stereo not shown) [Tetrahydro CBG, Tetrahydrocannabigerol], the IC50 was 2590 ± 620 nM.

Same assay, conditions: Mupirocin-resistant MRS (Table 11)
`CCCCCc1cc(O)c(C/C=C(\C)CCC2OC2(C)C)c(O)c1` (stereo not shown) [6,7-Epoxycannabigerol] showed an AMC of 20 ± 0. In the case of `CCCCCc1cc(O)c(CCC(C)CCCC(C)C)c(O)c1` (stereo not shown) [Tetrahydro CBG, Tetrahydrocannabigerol], the AMC is reported as 3.33 ± 1.44.

Same assay, conditions: Mupirocin-resistant MRS (Table 11); in µg/mL
In the case of `CCCCCc1cc(O)c(C/C=C(\C)CCC2OC2(C)C)c(O)c1` (stereo not shown) [6,7-Epoxycannabigerol], the IC50 is reported as 7.74 ± 1.17. With `CCCCCc1cc(O)c2c(c1)OC(C)(C)c1cc(O)c(C)cc1-2` [8-Hydroxycannabinol] the IC50 was 2.15 ± 0.22. `CC(C)=CCC/C(C)=C\Cc1c(O)cc(C)cc1O` [(Z)-Cannabigerorcin] showed an IC50 of 6.93 ± 1.54. `CCCCCc1cc(O)c(CCC(C)CCCC(C)C)c(O)c1` (stereo not shown) [Tetrahydro CBG, Tetrahydrocannabigerol] was tested, and the IC50 was 0.83 ± 0.2.

What follows are molecules tested on MRS 33591 (assay: IC50, MIC and MBC against MRS 33591). Details: MRS 33591.
Assay type: cell-based, Staphylococcus aureus
Protocol: as §1
With `CCCCCc1cc(O)c(CCC(C)CCCC(C)C)c(O)c1` (stereo not shown) [Tetrahydro CBG, Tetrahydrocannabigerol] the “MBC” value was 11.7 ± 5.52 µM (≈ 3.75 µg/mL) and the “MIC” value was 3.9 ± 0 µM (≈ 1.25 µg/mL).

Same assay, conditions: MRS 33591; read-out: IC50
`CCCCCc1cc(O)c(CCC(C)CCCC(C)C)c(O)c1` (stereo not shown) [Tetrahydro CBG, Tetrahydrocannabigerol] gave an IC50 of 2090 nM.

Same assay, conditions: MRS 33591; tested Conc. in μg/mL
`CCCCCc1cc(O)c(C/C=C(\C)CCC2OC2(C)C)c(O)c1` (stereo not shown) [6,7-Epoxycannabigerol] was tested, and the IC50 was 6.73 and the MIC was 13.33. In the case of `CCCCCc1cc(O)c2c(c1)OC(C)(C)c1cc(O)c(C)cc1-2` [8-Hydroxycannabinol], the IC50 is reported as 2.33 and the MIC is reported as 5 ± 0. `CC(C)=CCC/C(C)=C\Cc1c(O)cc(C)cc1O` [(Z)-Cannabigerorcin] was tested, and the IC50 was 9.48 and the MIC was 20 ± 0. Molecule `CCCCCc1cc(O)c(CCC(C)CCCC(C)C)c(O)c1` (stereo not shown) [Tetrahydro CBG, Tetrahydrocannabigerol] has an IC50 of 0.67 ± 0, an MBC of 3.75 and an MIC of 1.25 ± 0.

Each molecule was assayed on MRS USA 400 (assay: IC50, MIC and MBC against MRS USA 400). Details: MRS USA 400.
Assay type: cell-based, Staphylococcus aureus
Protocol: as §1
For `CCCCCc1cc(O)c(CCC(C)CCCC(C)C)c(O)c1` (stereo not shown) [Tetrahydro CBG, Tetrahydrocannabigerol], the “MBC” value was 31.2 ± 0 µM (≈ 10 µg/mL) and the “MIC” value was 7.8 ± 0 µM (≈ 2.5 µg/mL).

Same assay, conditions: MRS USA 400; read-out: IC50
Molecule `CCCCCc1cc(O)c(CCC(C)CCCC(C)C)c(O)c1` (stereo not shown) [Tetrahydro CBG, Tetrahydrocannabigerol] has an IC50 of 3490 ± 500 nM.

Same assay, conditions: MRS USA 400; tested Conc. in μg/mL
Molecule `CCCCCc1cc(O)c(C/C=C(\C)CCC2OC2(C)C)c(O)c1` (stereo not shown) [6,7-Epoxycannabigerol] has an IC50 of 8.67 and an MIC of 20 ± 0. Molecule `CCCCCc1cc(O)c2c(c1)OC(C)(C)c1cc(O)c(C)cc1-2` [8-Hydroxycannabinol] has an IC50 of 1.82 and an MIC of 5 ± 0. `CC(C)=CCC/C(C)=C\Cc1c(O)cc(C)cc1O` [(Z)-Cannabigerorcin] showed an IC50 of 7.27 and an MIC of 13.33. For `CCCCCc1cc(O)c(CCC(C)CCCC(C)C)c(O)c1` (stereo not shown) [Tetrahydro CBG, Tetrahydrocannabigerol], the IC50 was 1.12, the MBC was 10 ± 0 and the MIC was 2.5 ± 0.

These molecules were tested on S. aureus 29213 (assay: IC50, MIC and MBC against S. aureus 29213). Details: S. aureus 29213; tested Conc. in μg/mL.
Assay type: cell-based
Protocol: As used herein, the term “minimum inhibitory concentration (MIC)” refers to the lowest concentration of an antimicrobial agent that will inhibit the visible growth of a microorganism after overnight incubation. MIC values against bacteria may be determined by standard methods.
Work on `CCCCCc1cc(O)c(C/C=C(\C)CCC2OC2(C)C)c(O)c1` (stereo not shown) [6,7-Epoxycannabigerol] yielded an MIC of 16.67. Molecule `CCCCCc1cc(O)c2c(c1)OC(C)(C)c1cc(O)c(C)cc1-2` [8-Hydroxycannabinol] has an MIC of 5 ± 0. In the case of `CC(C)=CCC/C(C)=C\Cc1c(O)cc(C)cc1O` [(Z)-Cannabigerorcin], the MIC is reported as 16.67. `CCCCCc1cc(O)c(CCC(C)CCCC(C)C)c(O)c1` (stereo not shown) [Tetrahydro CBG, Tetrahydrocannabigerol] was tested, and the MIC was 1.25 ± 0.

Same assay, conditions: S. aureus 29213; tested Conc. in μg/mL; NA given without definition
`CCCCCc1cc(O)c(C/C=C(\C)CCC2OC2(C)C)c(O)c1` (stereo not shown) [6,7-Epoxycannabigerol] was tested, and the IC50 was 5.83. Molecule `CCCCCc1cc(O)c2c(c1)OC(C)(C)c1cc(O)c(C)cc1-2` [8-Hydroxycannabinol] has an IC50 of 1.2. `CC(C)=CCC/C(C)=C\Cc1c(O)cc(C)cc1O` [(Z)-Cannabigerorcin] was tested, and the IC50 was 8.12. Molecule `CCCCCc1cc(O)c(CCC(C)CCCC(C)C)c(O)c1` (stereo not shown) [Tetrahydro CBG, Tetrahydrocannabigerol] has an IC50 of 0.7.
